From patent publication US9974305B2, “Fungicidal or bactericidal composition, and method for controlling diseases” (NISSAN CHEMICAL INDUSTRIES, LTD., priority 2014, dated 2018)
Like-named read-outs stand apart in the source and are kept apart here.

What was measured:
Format in all cases: in vivo
[1] = system: cucumber gray mold fungus (Botrytis cinerea); assay: Preventive test against gray mold on cucumber cotyledon leaves, spray treatment, preventive value and Colby expected value (Test Examples 1-4); conditions: single compound; for pest or weed control at 10 ppm / pest or weed control at 20 ppm / pest or weed control at 50 ppm: Botrytis cinerea, 72 h; for pest or weed control at 20 ppm: 20 ppm spray; for pest or weed control at 50 ppm: 50 ppm spray
Procedure: Using the following compound listed in Table 2 (the active ingredient A) and the compound listed in Table 5 through Table 15 (active ingredient B), an agent was prepared in accordance with the above Formulation Example. This agent was diluted with water to a predetermined concentration to obtain a test solution. Then, cucumber (variety: Sagami-hanjiro) was planted in a plastic pot of 90 cm^3, and in the cotyledon stage, 5 ml of the obtained test solution, was sprayed by a spray gun and air-dried. Thereafter, the treated leaf was cut off and placed in a plastic container which filled approximately 0.5 cm in depth water. A suspension of conidia of cucumber gray mold fungus (Botrytis cinerea) and a dissolved PDA culture medium were mixed at a ratio of 1:1 (mass ratio), and the mixture was dropped to inoculate the treated leaf with 30 μl. After the inoculation, the plastic container was sealed and left at 20° C. for 3 days, the ratio of the formed lesion occupying the inoculated leaf was measured, and the preventive value was calculated in accordance with the following calculation formula. Preventive value=[1−(treated plot lesion area ratio/untreated plot lesion area ratio)]×100
Further, from the preventive value at each agent concentration, synergy was calculated by using the Colby method (Colby S. R. 1976, Weeds 15, 20-22). The calculation method is as follows. E=X+Y−XY/100
X: preventive value of A agent at x concentration
Y: preventive value of B agent at y concentration
E: theoretical value expected by treatment of the mixture of A agent and B agent.
The obtained result is analyzed to be synergy if the observed value is larger than the expected value, to be antagonism if the expected value is larger than the observed value, and to be an additive effect if the observed value and the expected value are the same.
Using the following compound listed in Table 2 (active ingredient A) and the following compound listed in Table 5 through Table 15 (active ingredient B) as active ingredients, a preventive test against gray mold was conducted in accordance with the method described in Test Example 1.
Using the following compound listed in Table 2 (active ingredient A) and the following compound listed in Table 5 or Table 6 (active ingredient B) as active ingredients, a preventive test against gray mold was conducted in accordance with the method described in Test Example 1.
Using the following compound listed in Table 2 (active ingredient A) and the following compound listed in Table 6 through Table 16 (active ingredient B) as active ingredients, a preventive test against gray mold was conducted in accordance with the method described in Test Example 1.

[2] = system: cucumber downy mildew (Pseudoperenospora cubensis); assay: Efficacy test on cucumber downy mildew, spray treatment and prevention test (Test Example 7); conditions: single compound 0.5 ppm; lesion area ratio
Procedure: An agent comprising the following compound listed in Table 2 (active ingredient A) and the compound listed in Table 6 (C40: active ingredient B) as active ingredients, was prepared in accordance with the above Formulation Example. This agent was diluted with water to a predetermined concentration to obtain a test solution. Then, to seedlings of cucumber (variety: Sagami-hanjiro) at 1.5-leaf stage grown in a pot with a diameter of 7 cm, the test solution was applied by a spray gun in an amount of 10 ml per pot, for treatment. One day after the treatment, a spore suspension (2×100,000 cfu/ml) of cucumber downy mildew (Pseudoperenospora cubensis), was spray-inoculated, and the pot was placed in a moist chamber set in temperature of 20° C. and humidity more than 95% RH for 24 hours. After placing the pot in a glass greenhouse for 6 days, the ratio of the formed lesion area occupying the inoculated leaves was measured, and the preventive value was calculated in accordance with the following formula. Preventive value=[1−(treated plot lesion area ratio/untreated plot lesion area ratio)]×100
(§1) Further, from the preventive value for each agent concentration, synergy was calculated by using the Colby method (Colby S. R. 1976, Weeds 15, 20-22).

[3] = system: wheat glume blotch (Leptosphaeria nodorum); assay: Efficacy test on wheat glume blotch, spray treatment and prevention test (Test Example 8); conditions: for pest or weed control at 5 ppm: single compound 5 ppm
Procedure: An agent comprising the following compound listed in Table 2 (active ingredient A) and the following compound listed in Table 6, Table 11 or Table 15 (active ingredient B) as active ingredients, was prepared in accordance with the above Formulation Example. This agent was diluted with water to a predetermined concentration to obtain a test solution. Then, to seedlings of wheat (variety: Haruyutaka) at the 1-leaf stage, seeded in a pot with a diameter of 7 cm, with 5 seeds per pot, and grown for 7 days, the test solution was applied by a spray gun in an amount of 5 ml per pot, for treatment. One day after the treatment, a spore suspension (1×100,000 cfu/ml) of wheat glume blotch (Leptosphaeria nodorum) was spray-inoculated, and the pot was placed in a moist chamber set in temperature of 20° C. and humidity more than 95% RH for 48 hours. After placing the pot in a glass greenhouse for 7 days, the ratio of the formed lesion area occupying the inoculated leaves was measured, and the preventive value was calculated in accordance with the following formula. Preventive value=[1−(treated plot lesion area ratio/untreated plot lesion area ratio)]×100
as §1

[4] = system: wheat powdery mildew (Blumeria graminis); assay: Efficacy test on wheat powdery mildew, seed treatment (Test Example 10); conditions: wheat (Norin 61)
Procedure: An agent comprising the following compound listed in Table 2 (active ingredient A) and the compound listed in Table 11 (H35: active ingredient B) as active ingredients, was prepared in accordance with the above Formulation Example. This agent was diluted with water to a predetermined concentration to obtain a test solution. A predetermined amount of test solution was put in a glass bottle of 5 ml, and 0.5 g (approximately 15 grains) of wheat seeds (variety: Norin 61) were added, stirred and air-dried. In each pot with a diameter of 7 cm and having soil put therein, 3 grains were seeded and grown for 14 days. To the wheat seedlings grown to the 1-leaf stage, a spore suspension (100,000 cfu/ml) of wheat powdery mildew (Blumeria graminis) was spray-inoculated. After placing the pot in a glass greenhouse for 10 days, the ratio of the formed lesion area occupying the inoculated leaves was measured, and the preventive value was calculated in accordance with the following formula. Preventive value=[1−(treated plot lesion area ratio/untreated plot lesion area ratio)]×100
(§2) Further, from the preventive value at each agent concentration, synergy was calculated by using the Colby method (Colby S. R. 1976, Weeds 15, 20-22).

[5] = system: wheat glume blotch (Leptosphaeria nodorum); assay: Efficacy test on wheat glume blotch, seed treatment (Test Example 9); conditions: single compound
Procedure: An agent comprising the following compound listed in Table 2 (active ingredient A) and the compound listed in Table 11 (H35: active ingredient B) as active ingredients, was prepared in accordance with the above Formulation Example. This agent was diluted with water to a predetermined concentration to obtain a test solution. A predetermined amount of the test solution was put in a glass bottle of 5 ml, and 0.5 g (approximately 15 grains) of wheat seeds (variety: Haruyutaka) were added, stirred and air-dried. In each pot with a diameter of 7 cm having soil put therein, 3 grains were seeded and grown for 14 days. To seedlings of the wheat (variety: Haruyutaka) grown to a 1-leaf stage, a spore suspension (100,000 cfu/ml) of wheat glume blotch (Leptosphaeria nodorum) was spray-inoculated, and the pot was placed in a moist chamber set in temperature of 20° C. and humidity more than 95% RH for 48 hours. After placing the pot for 7 days in a glass greenhouse, the ratio of the formed lesion area occupying the inoculated leaves was measured, and the preventive value was calculated in accordance with the following formula. Preventive value=[1−(treated plot lesion area ratio/untreated plot lesion area ratio)]×100
as §2

[6] = system: rice sheath blight fungus (Rhizoctonia solani); assay: Efficacy test on rice sheath blight, spray treatment and prevention test (Test Examples 5-6); conditions: single compound 5 ppm, lesion height
Procedure: An agent comprising the following compound listed in Table 2 (active ingredient A) and the compound listed in Table 6 (C17: active ingredient B) as active ingredients, was prepared in accordance with the above Formulation Example. The agent was diluted with water to a predetermined concentration to obtain a test solution. Then, in a plastic pot of 90 cm^3, rice (Nipponbare) was seeded by 5 grains in one place, and to the grown seedlings in 4 seedling phase, the test solution was applied by a spray gun in an amount of 5 ml per pot, for treatment.
One day after the treatment, 1 g of mycelium flora of rice sheath blight fungus (Rhizoctonia solani) cultured in bran medium, was put by […] to a close-to-ground part of seedlings, and the pot was placed in a moist chamber set in temperature of 25° C. and humidity more than 95% RH for eight days. The height of the lesions which appeared in the highest position from the close-to-ground part (lesion height) was investigated, and the preventive value was calculated in accordance with the following formula. Preventive value=[1−(treated plot lesion height/untreated plot lesion height)]×100
as §1
Using the following compound listed in Table 2 (active ingredient A) and the compound listed in Table 6 (C17: active ingredient B) as active ingredients, a preventive test on rice sheath blight was conducted in accordance with the above Test Example 5.

[7] = system: cucumber powdery mildew (Sphaerotheca cucurbitae); assay: Efficacy test on cucumber powdery mildew, irrigation treatment (Test Example 11); conditions: concentration 6.3 ppm, cucumber (Sagami-hanjiro)
Procedure: An agent comprising the following compound listed in Table 2 (active ingredient A) and the compound listed in Table 6 (C18: active ingredient B), was prepared in accordance with the above Formulation Example. This agent was diluted with water to a predetermined concentration to obtain a test solution. 5 ml of the test solution was irrigated by a pipette to the close-to-ground part of cucumber seedlings at the 1 leaf stage (variety: Sagami-hanjiro), grown in a styrol cup with a diameter of 10 cm, and next day, the seedlings were transplanted to the to 4 cun pots. Then, after cultivation for 7 days in a glass greenhouse, to the first true leaf of the cucumber, a spore suspension (100,000 cfu/ml) of cucumber powdery mildew (Sphaerotheca cucurbitae) was inoculated by spraying. After 10 days in a glass greenhouse, the ratio of the formed lesion area occupying the inoculated leaves was measured, and the preventive value was calculated in accordance with the following formula. Preventive value=[1−(treated plot lesion area ratio/untreated plot lesion area ratio)]×100
as §2

[8] = Test Example 4, 10 ppm spray, read-out: Preventive value
[9] = Parastagonospora nodorum, spray, lesion area ratio, read-out: Preventive value
[10] = Parastagonospora nodorum, single compound 50 ppm, spray, lesion area ratio, read-out: Preventive value
[11] = single compound 1 ppm, spray, lesion area ratio

Cc1c(Br)c2ccc(F)cc2n1S(=O)(=O)c1ncn(S(=O)(=O)N(C)C)n1 [C40, amisulbrom]
Preventive value ([1]; Test Example 1, 100 ppm spray): 0
Preventive value ([1]; Test Example 2, 100 ppm spray): 0
Preventive value [2]: 75

CCCCC(C#N)(Cn1cncn1)c1ccc(Cl)cc1 (stereo not shown) [H24, myclobutanil, reference compound]
pest or weed control at 10 ppm [1, 8]: 60%
pest or weed control at 100 ppm ([3]; Parastagonospora nodorum, single compound 100 ppm, spray, lesion area ratio, read-out: Preventive value): 70%

CC1(C)CCC(Cc2ccc(Cl)cc2)C1(O)Cn1cncn1 (stereo not shown) [H23, metconazole, reference compound]
pest or weed control at 10 ppm [1, 8]: 60%
pest or weed control at 5 ppm [3, 9]: 45%

CON=C(C(=O)OC)c1ccccc1CON=C(C)c1cccc(C(F)(F)F)c1 [C39, trifloxystrobin, reference compound]
pest or weed control at 10 ppm [1, 8]: 40%
pest or weed control at 50 ppm [3, 10]: 70%

COC(=O)NCc1cc(/C(C)=N/OCc2cccc(C)n2)ccc1Cl [C36, pyribencarb-methyl, reference compound]
Preventive value ([1]; Test Example 4, 10 ppm spray): 60
Preventive value ([3]; single compound 25 ppm, spray, lesion area ratio): 45

CO/C=C(/C(=O)OC)c1ccccc1COc1cccc(C(F)(F)F)n1 [C32, picoxystrobin, reference compound]
Preventive value ([1]; Test Example 4, 10 ppm spray): 30
Preventive value [3, 11]: 50

OC(Cc1ccccc1Cl)(Cn1nc[nH]c1=S)C1(Cl)CC1 (stereo not shown) [Compound No. H31, prothioconazole, reference compound]
pest or weed control at 10 ppm [1, 8]: 50%
pest or weed control at 50 ppm [3, 10]: 30%

CCCN(CCOc1c(Cl)cc(Cl)cc1Cl)C(=O)n1ccnc1 [H29, prochloraz, reference compound]
pest or weed control at 10 ppm ([1]; read-out: Preventive value, Test Example 4, 10 ppm spray): 50%
pest or weed control at 50 ppm ([3]; Parastagonospora nodorum, read-out: Preventive value): 45%

CC(C)(C)C(O)(CCc1ccc(Cl)cc1)Cn1cncn1 (stereo not shown) [Compound No. H35, tebuconazole, reference compound]
Preventive value ([4]; processing amount 0.025 mg/1 g seed): 80
Preventive value ([4]; processing amount 0.1 mg/1 g seed): 95
pest or weed control at 20 ppm ([1]; Test Example 1): 45%
pest or weed control at 20 ppm ([1]; Test Example 2): 50%
pest or weed control at 5 ppm [3, 9]: 45%
Preventive value ([5]; processing amount 1 mg/1 g seed): 60
Preventive value ([5]; processing amount 5 mg/1 g seed): 75

COC(=O)N(OC)c1ccccc1COc1ccn(-c2ccc(Cl)cc2)n1 [C33, pyraclostrobin, reference compound]
pest or weed control at 10 ppm [1, 8]: 50%
pest or weed control at 1 ppm ([3]; Parastagonospora nodorum, single compound 1 ppm, spray, lesion area ratio, read-out: Preventive value): 65%

Cc1nc(C(F)(F)F)c(C(=O)Nc2c(Br)cc(OC(F)(F)F)cc2Br)s1 [Compound No. C17, thifluzamide, reference compound]
pest or weed control at 50 ppm ([1]; Test Example 1, read-out: Preventive value): 20%
pest or weed control at 50 ppm ([1]; Test Example 2, read-out: Preventive value): 25%
Preventive value ([6]; Test Example 5): 69
Preventive value ([6]; Test Example 6): 75

CO/C=C(/C(=O)OC)c1ccccc1Oc1cc(Oc2ccccc2C#N)ncn1 [Compound No. C18, azoxystrobin, reference compound]
Preventive value [7]: 50
Preventive value ([1]; Test Example 1, 3 ppm spray): 30
Preventive value ([1]; Test Example 2, 3 ppm spray): 28
Preventive value [3, 11]: 65
